Results reported in patent publication US9006191B2, “Silencing of polo-like kinase expression using interfering RNA” (Protiva Biotherapeutics, Inc., priority 2007, dated 2015).

What was measured:
[1] = tested on: Neuro2a tumors; experiment: Hepatic Neuro2a tumor histology (H&E, quantitative); format: in vivo, mouse
Method: Hepatic Neuro2a tumor histology 24 h after a single intravenous administration of (A) Luc-U/U or (B) KSP2263-U/U siRNA formulated in SNALP (2 mg/kg siRNA). Images are at 200× magnification and representative of tumors from at least 6 individual mice. […] (C) Quantitative histology of H&E stained tumor tissues from mice treated with SNALP-formulated KSP2263-U/U at 4, 2, 1, or 0.5 mg/kg siRNA. Tumor cells with condensed chromatin structures were scored positive and calculated as a % of total tumor cells taken from 10 fields of view. Positive cells included aberrant and typical mitotic and apoptotic figures. Values are mean+SD of 3 mice. Mean SNALP particle size and (polydispersity) were 88 (0.07) and 82 (0.08) nm for KSP2263 and Luc, respectively.
Histology. Tumors were harvested from mice 24 h after siRNA administration and fixed directly in 10% buffered formalin. Tissues were then processed as paraffin embedded tissue sections and stained with Hematoxylin and Eosin using conventional histological techniques. Quantitative analysis of stained sections was performed by counting the number of mitotic/apoptotic cells displaying condensed chromatin structures as a percentage of total tumor cells. Values for each tumor were derived from means of 10 fields of view at 400× magnification.

[2] = tested on: IFIT1 mRNA, serum IFNα; conditions: mouse, in vivo, iv
Method: (§2) Balb/c mice (n=4 per group) were administered 2.5 mg/kg siRNA or lipid vehicle; serum IFNα (pg/mL) and IFIT1 mRNA (relative to GAPDH) from whole liver lysates were assessed after 4, 8, and 16 h by ELISA and bDNA assay, respectively. […] (b) Serum IFNα and (c) liver IFIT1 mRNA were assessed 4 h after administration (mean+SD, n=4).
(§3) SNALP-formulated Luc (unmodified) and the 2′OMe-modified Luc-U/U, PLK1424-2/A, PLK773-1/B, or KSP2263-U/U siRNA were administered at 2 mg/kg i.v. to Balb/C mice. (A) IFIT1 relative to GAPDH mRNA in liver and spleen was assessed at 4 h by bDNA analysis. […] Serum IFNα was assessed at 6 h by ELISA. […] Values represent mean+SD (n=4).
(§4) IFIT1 mRNA and serum cytokines were assessed 4-6 h after SNALP administration based on the approximate time of peak response for these markers. In these studies, SNALP-formulated native Luc siRNA (Table 6) was used as a positive control for immune stimulation.
(§5) In vivo immune stimulation assays. […] 6-8 week old Balb/C mice were obtained from Harlan and subject to a two week acclimation period prior to use. Mice were administered SNALP formulated siRNA (2 mg/kg) in PBS via standard intravenous injection in the lateral tail vein. Blood was collected by cardiac puncture and processed as plasma for cytokine analysis. Liver and spleen were collected into RNALater (Sigma Co.) for IFIT1 mRNA analysis.
(§6) Measurement of IFIT1 mRNA in mouse tissues. Murine liver and spleen were processed for bDNA assay to quantitate IFIT1 mRNA as described above. The IFIT1 probe set was specific to mouse IFIT1 mRNA (positions 4-499 of NM—008331) and the GAPDH probe set was specific to mouse GAPDH mRNA (positions 9-319 of NM—008084). Data is shown as the ratio of IFIT1 relative light units (RLU) to GAPDH RLU.
(§7) Cytokine ELISA. All cytokines were quantified using sandwich ELISA kits. These were mouse interferon-α (PBL Biomedical; Piscataway, N.J.) and human and mouse IL-6 (BD Biosciences; San Diego, Calif.).

[3] = tested on: IFIT1 mRNA, serum IFNα; experiment: In vivo immune stimulation assay in Balb/c mice (IFIT1 mRNA, serum IFNα); conditions: SNALP-formulated siRNA IV, 4 h
Method: as §2, §3, §4, §5, §6, §7

[4] = tested on: HeLa cells; experiment: Monoastral spindle formation in HeLa cells; format: cell-based, human; conditions: 20 nM, 16 h
Method: HeLa cells were treated for 16 h with (A) Luc or (B) KSP2263 siRNA at 20 nM then immunostained for α-tubulin (FITC). DNA was stained with DAPI and flourescent images captured and overlayed.

[5] = tested on: mouse KSP mRNA; experiment: 5′ RACE-PCR in Neuro2a cells; format: cell-based; conditions: 24 h
Method: (A) HT29 cells were treated with 10 nM SNALP-formulated PLK1424, Luc siRNA or PBS. RNA was isolated 24 hours after transfection and assayed for the specific PLK-1 mRNA cleavage product by 5′-RACE-PCR. (B) Neuro2a cells were treated with SNALP-formulated KSP2263, PLK773 siRNA or PBS. RNA was isolated 24 hours after transfection and assayed for the specific mouse KSP mRNA cleavage product by 5′-RACE-PCR.
The detection of specific RNA cleavage products generated by RISC-mediated hydrolysis of target mRNA is the definitive marker confirming RNAi as the mechanism of gene silencing (39, 40). Activated RISC cleaves target mRNA precisely between the nucleotides complementary to positions 10 and 11 of the siRNA AS strand generating an mRNA cleavage product that is unique to the siRNA sequence. This can be detected in cells using an appropriately designed 5′-rapid amplification of cDNA ends-PCR method (RACE-PCR). We developed RACE-PCR assays to detect the PLK1424-specific cleavage product of human PLK-1 mRNA and the KSP2263-specific cleavage product of mouse KSP mRNA.
(§1) 5′ RNA Ligase Mediated Rapid Amplification of cDNA ends (5′ RLM RACE).

[6] = tested on: mouse KSP mRNA; experiment: 5′ RACE-PCR of hepatic Neuro2a tumors; format: in vivo
Excerpt: as §1

[7] = tested on: Neuro2a liver tumors; experiment: Intrahepatic Neuro2a tumor model (survival); format: in vivo, mouse; conditions: A/J mice, hepatic Neuro2a tumors, 4 mg/kg Q3d x5
Method: PLK1424-2/A treatment confers significant survival advantages in scid/beige mice bearing hepatic Hep3B tumors. Mice were administered SNALP-formulated PLK1424-2/A (n=15) or Luc-U/U (n=8) at 6×2 mg/kg, intravenous twice weekly (d 10 to d 28). (A) Body weights (mean+SD) over the dosing period expressed as % of initial weight on d 10. (B) Kaplan-Meier plot of days to euthanization due to tumor burden. […] (p=0.03, Log-rank Mantel Cox test). (C) Residual hepatic Hep3B tumor burden in mice 24 h after final administration of PLK1424-2/A siRNA (5×2 mg/kg siRNA on d 8, 11, 14, 18 & 21). Bars represent hGAPDH mRNA/mg liver of individual mice (mean+/−SD of triplicate analyses) determined by human-specific bDNA assay (No tumor=livers from non-tumor seeded mice). […]
Intrahepatic tumor models. […] Mice were allowed to recover from anaesthesia in a sterile cage and monitored closely for 2-4 h before being returned to conventional housing.
Eight to 11 days after tumor implantation, mice were randomized into treatment groups. siRNA SNALP formulations or PBS vehicle control were administered by standard intravenous injection via the lateral tail vein, calculated on a mg siRNA/kg basis according to individual animal weights (10 mL/kg injection volume). Body weights were then monitored throughout the duration of the study as an indicator of developing tumor burden and treatment tolerability. […]

[8] = tested on: Hep3B liver tumors; experiment: Intrahepatic Hep3B tumor model (survival, body weight, tumor burden); format: in vivo; conditions: scid/beige mice, 2 mg/kg IV twice weekly for 3 weeks
Method: SNALP containing PLK-1 siRNA (“1:57” SNALP formulation: 1.4% PEG-cDMA; 57.1% DLinDMA; 7.1% DPPC; and 34.3% cholesterol) were tested for their effects on the survival of […] mice bearing Hep3B liver tumors.
Intrahepatic tumor models. Liver tumors were established in mice by direct intrahepatic injection of Hep3B or Neuro2a tumor cells (45). Female scid/beige mice (Charles River Laboratories) and male A/J mice (Jackson Laboratories) were used as hosts for the Hep3B and Neuro2a tumors, respectively. Animals received Anafen by SC injection immediately prior to surgery. Individual mice were anaesthetized by isoflourane gas inhalation and eye lube applied to prevent excessive eye drying. While maintained under gas anaesthesia, a single 1.5 cm incision across the midline was made below the sternum and the left lateral hepatic lobe exteriorized. 1×10^6 Hep3B cells or 1×10^5 Neuro2a cells suspended in 25 μL PBS were injected slowly into the lobe at a shallow angle using a Hamilton syringe and 30G needle. A swab was then applied to the puncture wound to stop any bleeding prior to suturing. Mice were allowed to recover from anaesthesia in a sterile cage and monitored closely for 2-4 h before being returned to conventional housing.
Eight to 11 days after tumor implantation, mice were randomized into treatment groups. siRNA SNALP formulations or PBS vehicle control were administered by standard intravenous injection via the lateral tail vein, calculated on a mg siRNA/kg basis according to individual animal weights (10 mL/kg injection volume). Body weights were then monitored throughout the duration of the study as an indicator of developing tumor burden and treatment tolerability. For efficacy studies, defined humane endpoints were determined as a surrogate for survival. Assessments were made by qualified veterinary technicians based on a combination of clinical signs, weight loss, and abdominal distension to define the day of euthanization due to tumor burden.
Measurement of human PLK-1 and GAPDH mRNA in tumor tissues. Tumors were harvested directly into RNALater and stored at 4° C. until processing. 100 mg tumor tissue was homogenized in Tissue and Lysis Solution (EpiCentre Biotechnologies) containing […] proteinase K (EpiCentre) in a Fastprep tissue homogenizer followed by incubation in a 65° C. waterbath for 15 min and centrifuged to clarify lysates. mRNA analysis in FIG. 33B was performed on purified RNA isolated according the 5′-RACE-PCR protocol. Human PLK-1 and GAPDH mRNA were measured in tumor lystes by the QuantiGene bDNA assay (Panomics) as per the manufacturer's instructions (Quantigene 1.0 Manual). […] Data were expressed as mean PLK-1:GAPDH ratio+/−SD of individual animals. Tumor burden was assessed by homogenizing the complete liver from tumor bearing mice and measuring the total hGAPDH signal (RLU's) within the liver. Values were expressed as hGAPDH RLU/mg total liver.

[9] = tested on: PLK-1 mRNA; experiment: 5′ RACE-PCR of Hep3B liver tumors; format: in vivo, human; conditions: hepatic Hep3B tumors, single 2 mg/kg IV dose
Excerpt: as §1

Substance | Neuro2a tumor histology (aberrant mitotic figures) ([1]; 24 h after SNALP administration) | tumor cells with condensed chromatin structures, % of total tumor cells ([1]; 24 h post siRNA treatment) [%] | serum IFNα / serum cytokine response [2] | IFIT1 mRNA induction in liver and spleen [3] | monoastral spindle phenotype [4] | KSP mRNA cleavage product by 5′ RACE-PCR [5] | RNAi-mediated KSP mRNA cleavage by RACE-PCR [6] | median survival time [7] [days] | median survival time [8] [days] | time until first euthanization ([8]; days after tumor seeding) [days] | specific cleavage product of PLK-1 mRNA by 5′ RACE-PCR [9]
KSP2263-U/U: 2′OMe-modified KSP2263 duplex, SEQ ID NO:227/229 (chain 1 CNGAAGACCNGAAGACAANTT; chain 2 AUUGUCUNCAGGNCUNCAGTT; siRNA; 2'-O-methyl modifications at selected positions, key for n not given here) | significant numbers of tumor cells with aberrant mitotic figures typical of monoastral and apoptotic cells | ~13 | no measurable IFNα | no measurable IFNα or increase in IFIT1 mRNA in the liver or spleen | induced the distinct monoastral nuclear phenotype in vitro | predicted 102 bp RACE-PCR product was amplified | confirmed the specific induction of RNAi-mediated KSP mRNA cleavage within tumors | 28 | – | – | –
Luc-U/U: control 2′OMe siRNA targeting luciferase, SEQ ID NO:233/234 (chain 1 GANUANGNCCGGNNANGNAUU; chain 2 UACANAACCGGACANAANCUU; 2'-O-methyl modifications at selected positions, key for n not given here) [reference compound] | – | – | no measurable IFNα | no measurable IFNα or increase in IFIT1 mRNA in the liver or spleen | – | – | – | – | 32 | 28 | not evident
